According to ChEMBL document CHEMBL4387792, “Cytotoxic and Antibacterial Cervinomycins B1-4 from a Streptomyces Species” (J Nat Prod, 2019):
Converted amounts (≈) assume the structure as drawn. The source made the active and inactive calls. No cut-off for these calls is given here.

Tests used:
Enterococcus faecium [1] = test: Antibacterial activity against vancomycin-resistant Enterococcus faecium 12-1 assessed as prevention of visible bacterial growth incubated for 18 hrs by broth dilution method; assay type: functional; settings: 12-1, 18 h
Enterococcus faecium [2] = test: Antibacterial activity against vancomycin-resistant Enterococcus faecium ATCC 700221 assessed as prevention of visible bacterial growth incubated for 18 hrs by broth dilution method; assay type: functional; settings: ATCC 700221, 18 h
Staphylococcus aureus [3] = test: Antibacterial activity against methicillin-resistant Staphylococcus aureus 16-30 assessed as prevention of visible bacterial growth incubated for 18 hrs by broth dilution method; assay type: functional; settings: 16-30, 18 h
SW1990 = test: Cytotoxicity against human SW1990 cells incubated for 72 hrs by MTT assay; assay type: functional, cell-based; settings: SW1990, 72 h
Staphylococcus aureus [4] = test: Antibacterial activity against methicillin-resistant Staphylococcus aureus ATCC 33591 assessed as prevention of visible bacterial growth incubated for 18 hrs by broth dilution method; assay type: functional; settings: ATCC 33591, 18 h
Enterococcus faecalis [5] = test: Antibacterial activity against vancomycin-resistant Enterococcus faecalis ATCC 51575 assessed as prevention of visible bacterial growth incubated for 18 hrs by broth dilution method; assay type: functional; settings: ATCC 51575, 18 h
Enterococcus faecalis [6] = test: Antibacterial activity against vancomycin-resistant Enterococcus faecalis ATCC 51299 assessed as prevention of visible bacterial growth incubated for 18 hrs by broth dilution method; assay type: functional; settings: ATCC 51299, 18 h
PC-3 = test: Cytotoxicity against human PC3 cells incubated for 72 hrs by MTT assay; assay type: functional, cell-based; settings: PC-3, 72 h
NCI-H1299 = test: Cytotoxicity against human NCI-H1299 cells incubated for 72 hrs by MTT assay; assay type: functional, cell-based; settings: NCI-H1299, 72 h
Enterococcus faecalis [7] = test: Antibacterial activity against vancomycin-sensitive Enterococcus faecalis ATCC 29212 assessed as prevention of visible bacterial growth incubated for 18 hrs by broth dilution method; assay type: functional, organism-based
Enterobacter cloacae = test: Antibacterial activity against Enterobacter cloacae ATCC 43560 assessed as prevention of visible bacterial growth incubated for 18 hrs by broth dilution method; assay type: functional, organism-based
Pseudomonas aeruginosa = test: Antibacterial activity against Pseudomonas aeruginosa ATCC 27853 assessed as prevention of visible bacterial growth incubated for 18 hrs by broth dilution method; assay type: functional, organism-based
Shigella flexneri = test: Antibacterial activity against Shigella flexneri ATCC 12022 assessed as prevention of visible bacterial growth incubated for 18 hrs by broth dilution method; assay type: functional, organism-based
Staphylococcus aureus [8] = test: Antibacterial activity against methicillin-sensitive Staphylococcus aureus 15 assessed as prevention of visible bacterial growth incubated for 18 hrs by broth dilution method; assay type: functional, organism-based
Staphylococcus aureus [9] = test: Antibacterial activity against methicillin-sensitive Staphylococcus aureus 16-1 assessed as prevention of visible bacterial growth incubated for 18 hrs by broth dilution method; assay type: functional, organism-based
Escherichia coli [10] = test: Antibacterial activity against extended-spectrum beta-lactamase producing Escherichia coli ATCC 35218 assessed as prevention of visible bacterial growth incubated for 18 hrs by broth dilution method; assay type: functional, organism-based
[11] = tested on: Staphylococcus epidermidis; test: Antibacterial activity against methicillin-sensitive Staphylococcus epidermidis 16-4 assessed as prevention of visible bacterial growth incubated for 18 hrs by broth dilution method; assay type: functional, organism-based
Enterococcus faecium [12] = test: Antibacterial activity against vancomycin-sensitive Enterococcus faecium 16-5 assessed as prevention of visible bacterial growth incubated for 18 hrs by broth dilution method; assay type: functional, organism-based
[13] = tested on: Staphylococcus epidermidis; test: Antibacterial activity against methicillin-resistant Staphylococcus epidermidis 16-5 assessed as prevention of visible bacterial growth incubated for 18 hrs by broth dilution method; assay type: functional, organism-based
Enterococcus faecalis [14] = test: Antibacterial activity against vancomycin-sensitive Enterococcus faecalis 16-6 assessed as prevention of visible bacterial growth incubated for 18 hrs by broth dilution method; assay type: functional, organism-based
Klebsiella pneumoniae [15] = test: Antibacterial activity against extended-spectrum beta-lactamase non-producing Klebsiella pneumoniae 16-2 assessed as prevention of visible bacterial growth incubated for 18 hrs by broth dilution method; assay type: functional, organism-based
Staphylococcus aureus [16] = test: Antibacterial activity against methicillin-sensitive Staphylococcus aureus ATCC 29213 assessed as prevention of visible bacterial growth incubated for 18 hrs by broth dilution method; assay type: functional, organism-based
[17] = tested on: Acinetobacter calcoaceticus; test: Antibacterial activity against Acinetobacter calcoaceticus ATCC 19606 assessed as prevention of visible bacterial growth incubated for 18 hrs by broth dilution method; assay type: functional, organism-based
[18] = tested on: Staphylococcus epidermidis; test: Antibacterial activity against methicillin-sensitive Staphylococcus epidermidis ATCC 12228 assessed as prevention of visible bacterial growth incubated for 18 hrs by broth dilution method; assay type: functional, organism-based
Klebsiella pneumoniae [19] = test: Antibacterial activity against extended-spectrum beta-lactamase producing Klebsiella pneumoniae 700603 assessed as prevention of visible bacterial growth incubated for 18 hrs by broth dilution method; assay type: functional, organism-based
Escherichia coli [20] = test: Antibacterial activity against extended-spectrum beta-lactamase non-producing Escherichia coli ATCC 25922 assessed as prevention of visible bacterial growth incubated for 18 hrs by broth dilution method; assay type: functional, organism-based

Row | Compound | MIC (Enterococcus faecium [1]) [µg/mL] | MIC (Enterococcus faecium [2]) [µg/mL] | MIC (Staphylococcus aureus [3]) [µg/mL] | IC50 (SW1990) [nM] | MIC (Staphylococcus aureus [4]) [µg/mL] | MIC (Enterococcus faecalis [5]) [µg/mL] | MIC (Enterococcus faecalis [6]) [µg/mL] | IC50 (PC-3) [nM] | IC50 (NCI-H1299) [nM] | Activity (Enterococcus faecalis [7]) | Activity (Enterobacter cloacae) | Activity (Pseudomonas aeruginosa) | Activity (Shigella flexneri) | Activity (Staphylococcus aureus [8]) | Activity (Staphylococcus aureus [9]) | Activity (Escherichia coli [10]) | Activity [11] | Activity (Enterococcus faecium [12]) | Activity [13] | Activity (Enterococcus faecalis [14]) | also measured
1 | COc1cc2oc3c(c(=O)c2cc1OC)C(=O)c1c(ccc2cc4c(c(O)c12)C(=O)N1CCO[C@]1(C)C4)C3=O | 1 (≈ 1.9 µM) | 1 (≈ 1.9 µM) | 0.5 (≈ 0.948 µM) | 704 | 0.5 (≈ 0.948 µM) | 0.12 (≈ 0.227 µM) | 0.12 (≈ 0.227 µM) | 1310 | 252 | – | – | – | – | – | – | – | – | – | – | – | –
2 | COc1cc2oc3c(O)c4c(c(O)c3c(=O)c2cc1O)-c1c(cc2c(c1O)C(=O)N1CCO[C@]1(C)C2)CC4 | 0.03 (≈ 0.058 µM) | 0.03 (≈ 0.058 µM) | 0.008 (≈ 0.0155 µM) | 0.8 | 0.016 (≈ 0.0309 µM) | 0.016 (≈ 0.0309 µM) | 0.016 (≈ 0.0309 µM) | 4.4 | 49.1 | inactive | inactive | inactive | inactive | inactive | inactive | inactive | inactive | inactive | inactive | inactive | Activity (Klebsiella pneumoniae [15]): inactive; Activity (Staphylococcus aureus [16]): inactive; Activity [17]: inactive; Activity [18]: inactive; Activity (Klebsiella pneumoniae [19]): inactive; Activity (Escherichia coli [20]): inactive
3 | COc1cc2oc3c(c(=O)c2cc1O)C(=O)C1=C(CCc2cc4c(c(O)c21)C(=O)N1CCO[C@]1(C)C4)C3=O | 0.25 (≈ 0.485 µM) | 0.5 (≈ 0.97 µM) | 0.12 (≈ 0.233 µM) | 20.9 | 0.25 (≈ 0.485 µM) | 0.5 (≈ 0.97 µM) | 0.25 (≈ 0.485 µM) | 34.3 | 107 | inactive | inactive | inactive | inactive | inactive | inactive | inactive | inactive | inactive | inactive | inactive | Activity (Klebsiella pneumoniae [15]): inactive; Activity (Staphylococcus aureus [16]): inactive; Activity [17]: inactive; Activity [18]: inactive; Activity (Klebsiella pneumoniae [19]): inactive; Activity (Escherichia coli [20]): inactive
4 | C[C@H]1COc2c(N3CCN(C)CC3)c(F)cc3c(=O)c(C(=O)O)cn1c23.C[C@H]1COc2c(N3CCN(C)CC3)c(F)cc3c(=O)c(C(=O)O)cn1c23.O [LEVOFLOXACIN] | 128 | 128 | 32 | – | 0.12 | 2 | 1 | – | – | – | – | – | – | – | – | – | – | – | – | – | –
5 | COc1cc2oc3c(O)c4c(c(O)c3c(=O)c2cc1OC)-c1c(cc2c(c1O)C(=O)N1CCO[C@]1(C)C2)CC4 | 0.03 (≈ 0.0564 µM) | 0.12 (≈ 0.226 µM) | 0.06 (≈ 0.113 µM) | 2.2 | 0.06 (≈ 0.113 µM) | 0.12 (≈ 0.226 µM) | 0.06 (≈ 0.113 µM) | 2.2 | 0.1 | inactive | inactive | inactive | inactive | inactive | inactive | inactive | inactive | inactive | inactive | inactive | Activity (Klebsiella pneumoniae [15]): inactive; Activity (Staphylococcus aureus [16]): inactive; Activity [17]: inactive; Activity [18]: inactive; Activity (Klebsiella pneumoniae [19]): inactive; Activity (Escherichia coli [20]): inactive
6 | COc1cc2oc3c(c(=O)c2cc1OC)C(=O)C1=C(CCc2cc4c(c(O)c21)C(=O)N1CCO[C@]1(C)C4)C3=O | 0.12 (≈ 0.227 µM) | 0.06 (≈ 0.113 µM) | 0.12 (≈ 0.227 µM) | 5.4 | 0.06 (≈ 0.113 µM) | 0.12 (≈ 0.227 µM) | 0.12 (≈ 0.227 µM) | 3.5 | 2 | inactive | inactive | inactive | inactive | inactive | inactive | inactive | inactive | inactive | inactive | inactive | Activity (Klebsiella pneumoniae [15]): inactive; Activity (Staphylococcus aureus [16]): inactive; Activity [17]: inactive; Activity [18]: inactive; Activity (Klebsiella pneumoniae [19]): inactive; Activity (Escherichia coli [20]): inactive
